Test results reported in publication PMC6079014, “Calcium is an essential cofactor for metal efflux by the ferroportin transporter family” (Nature Communications, 2018).

What was measured:
[1] = target: T1, human Fpn (Homo sapiens, UniProt Q9NP59); test: 45Ca radiotracer uptake assay in Xenopus oocytes expressing Fpn; type: cell-based; conditions: 100 μM 45Ca2+, 30 min; vehicle or 50 nl of 50 µM Fe injected
T1 construct: expressed in transfected cells; host or cells: Xenopus laevis oocytes injected with Fpn RNA
T1 sequence (Q9NP59 1-571): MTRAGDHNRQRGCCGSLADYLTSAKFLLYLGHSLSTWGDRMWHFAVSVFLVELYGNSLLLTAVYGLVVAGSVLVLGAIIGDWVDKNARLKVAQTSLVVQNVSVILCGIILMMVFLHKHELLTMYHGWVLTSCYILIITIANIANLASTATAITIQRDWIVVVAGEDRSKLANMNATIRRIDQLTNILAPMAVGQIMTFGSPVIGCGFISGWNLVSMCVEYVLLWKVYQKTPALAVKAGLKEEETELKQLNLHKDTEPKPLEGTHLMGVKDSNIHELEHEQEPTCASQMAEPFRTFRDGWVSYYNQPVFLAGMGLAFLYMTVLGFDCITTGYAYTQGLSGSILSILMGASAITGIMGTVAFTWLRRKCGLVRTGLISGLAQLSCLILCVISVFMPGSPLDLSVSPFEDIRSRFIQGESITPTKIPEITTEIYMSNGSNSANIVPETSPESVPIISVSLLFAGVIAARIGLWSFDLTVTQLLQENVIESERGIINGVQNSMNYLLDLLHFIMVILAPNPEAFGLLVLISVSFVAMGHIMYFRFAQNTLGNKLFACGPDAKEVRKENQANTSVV
Protocol: We performed laparotomy and ovariectomy on adult female Xenopus laevis frogs (Nasco, Fort Atkinson, WI) under 2-aminoethylbenzoate methanesulfonate anesthesia (0.2%, by immersion, to effect) following a protocol approved by the University of Cincinnati Institutional Animal Care and Use Committee. Ovarian tissue was isolated and treated for 3 h with […] collagenase A (Roche Diagnostics Corp., Indianapolis, IN) in calcium-free-modified Barths’ medium (MBM) of composition 88 mM NaCl, 1 mM KCl, 2.4 mM NaHCO3, 1.57 mM MgSO4, 0.66 mM NaNO3, 10 mM 4-(2-hydroxyethyl)-1-piperazineethanesulfonic acid (HEPES), buffered to pH 7.5 by using 2-amino-2-hydroxymethyl-propane-1,3-diol (Tris base). We isolated defolliculate stage V–VI oocytes stored at 17 °C in MBM of composition 88 mM NaCl, 1 mM KCl, 2.4 mM NaHCO3, 0.82 MgSO4, 0.75 mM CaCl2, 0.66 mM NaNO3, 10 mM HEPES, buffered to pH 7.5 by using Tris base, with 50 mg l^−1 ciprofloxacin. We expressed in Xenopus oocytes the 1A transcript form of human Fpn fused at its C-terminus with the enhanced green fluorescent protein (GFP) as described. Oocytes were injected with ∼50 ng of Fpn RNA and incubated for 4–6 days before being used in functional assays. Control oocytes were noninjected.
We measured calcium uptake by using a radiotracer assay. […]

[2] = target: T1, human Fpn; test: 55Fe efflux from HEK293T cells with tet-inducible human Fpn; type: cell-based
Protocol: We measured ^55Fe efflux from HEK293 cells (E. Nemeth, UCLA) that were stably transfected with a tet-inducible human Fpn construct in pcDNA5/FRT/TO vector (Invitrogen) as described. Fpn expression was induced by adding 0.5 µg/ml doxycycline; data represent % efflux in induced minus uninduced cells. Fpn expression in mammalian cells was confirmed by visualizing GFP fluorescence, which was unaffected by removal of extracellular calcium.

[Ca+2] [Ca^2+, calcium]
Uptake of 45Ca2+ in oocytes expressing Fpn vs control [1]: neither Fpn expression nor intracellular iron injection stimulated
Effect of extracellular Ca2+ on 55Fe efflux ([2]; HEK293T cells, 1 mM Ca2+, over 6 h (P = 0.002) and 24 h (P < 0.001), not at earlier time points): significantly activated
Effect of removal of extracellular Ca2+ on Fpn-mediated 55Fe efflux ([2]; HEK cells, 0 Ca2+ + 1 mM EGTA vs 1 mM Ca2+): abolished
